Key:
LNCaP cells = experiment: Cellular uptake experiments with 99mTc-labeled ligands in LNCaP cells (with and without 2-PMPA competitor); type: cell-based
Method: (§1) Phosphate buffer was prepared from 890 mg Na2PO4.2H2O in 9.5 mL water for injection and 0.5 mL 2 m NaOH. After dissolution of the salts, the buffer was sterile filtered, the pH was determined using pH stripes (pH=11.5-12.0). The labeling mixture consisted of 1 μl precursor solution (1 mg/ml in MeCH/H2O 20:50; approx. 1 nmol), 20 μl phosphate buffer, 10 μl […] (TCEP; 28.7 mg/mL in phosphate buffer; 0.1 molar solution) and 4-10 μL pertechnetate in saline (0.9% NaCl; generator cluate) containing an activity of approx. 7.5 MBq. The mixture was filled to 100 μl with saline (0.9% NaCl; 59-65 μL). The pH of the reaction mixture was 8.0-8.5 (tendency towards 8.5). The mixture was heated at 98° C. for 10 minutes. After cooling to room temperature, the mixture was diluted to 1 mL by addition of saline (0.9% NaCl, ligand concentration 1 μm). An aliquot was analyzed by HPLC to determine the radiochemical yield (RCY) (method B, see example 9). Aliquots of the product mixture containing the ^99mTc-labeled ligand were further diluted to a concentration of approx. 100 nM (precursor) in PBS with and without a 10000 fold excess of 2-(Phosphonomethyl)-pentandioic acid, 2-Phosphonomethyl pentanedioic acid (2-PMPA) as competitor.
Cellular uptake experiments were conducted in analogy to previously described procedures (Lindner et al., Doi.: 10.2967/jnumed.118.210443). Briefly, LNCaP cells were seeded in 6-Well plates in RPMI medium containing 20% FBS (two day of incubation prior to the experiment) and grown to a confluency of 70-80%. For the uptake experiment, the medium was removed and the cells were incubated with 1 mL of a 1:99 dilution of the 100 nM product mixture dilutions (with and without competitor) described in Example 3. […] The cellular uptake was determined from the activity in the lysed fraction. The unspecific uptake was determined from the cellular uptake of the cells incubated with the ligand in presence of the competitor. […]

PSMA = target: T1, PSMA (Homo sapiens, UniProt Q04609); experiment: Competitive binding experiments on LNCaP cells (competitor 2-PMPA), Ki by Cheng-Prusoff; conditions: 1 h, calculated from IC50 with cheng-prusoff equation, values printed in parentheses
T1 construct: endogenous in cells; host or cells: LNCaP cells
Method: as §1
For determination of Ki, competitive binding experiments were conducted. […] The cellular uptake was determined from the activity in the lysed fraction.

T1 sequence (Q04609 whole entry): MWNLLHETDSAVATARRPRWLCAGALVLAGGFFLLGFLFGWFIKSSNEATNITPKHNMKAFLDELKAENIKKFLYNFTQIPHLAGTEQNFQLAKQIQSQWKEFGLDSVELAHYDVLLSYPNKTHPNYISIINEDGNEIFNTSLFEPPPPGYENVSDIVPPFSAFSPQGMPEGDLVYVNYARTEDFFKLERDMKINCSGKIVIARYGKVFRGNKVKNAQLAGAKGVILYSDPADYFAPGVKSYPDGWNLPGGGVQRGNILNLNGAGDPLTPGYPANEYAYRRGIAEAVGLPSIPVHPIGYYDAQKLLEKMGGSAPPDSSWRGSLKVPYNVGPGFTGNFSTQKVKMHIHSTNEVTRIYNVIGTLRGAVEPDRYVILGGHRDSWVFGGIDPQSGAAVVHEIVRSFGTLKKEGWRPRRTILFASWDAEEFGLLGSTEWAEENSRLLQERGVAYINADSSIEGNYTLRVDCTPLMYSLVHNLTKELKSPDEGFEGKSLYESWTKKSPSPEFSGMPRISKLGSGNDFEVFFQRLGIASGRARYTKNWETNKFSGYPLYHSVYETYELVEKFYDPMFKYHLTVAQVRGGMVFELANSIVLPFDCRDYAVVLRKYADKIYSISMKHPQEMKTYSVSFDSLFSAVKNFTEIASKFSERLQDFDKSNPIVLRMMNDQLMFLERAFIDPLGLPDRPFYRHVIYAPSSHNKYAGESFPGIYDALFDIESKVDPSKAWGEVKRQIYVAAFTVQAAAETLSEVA

Ki (PSMA): 0.038 µM
Substance: ^99mTc-EDDA-HYNIC-iPSMA [[^99mTc]TLX-598]
Specific uptake (LNCaP cells; 1 h, unspecific uptake subtracted from cellular uptake): 18.7 ± 0.3 % AD/10^6 cells
Unspecific uptake (LNCaP cells; 1 h incubation, in presence of 10000 fold excess 2-PMPA): 1.64 ± 0.07 % AD/10^6 cells
Uptake (LNCaP cells; 1 h incubation, triplicate): 20.3 ± 0.3 % AD/10^6 cells

From patent US20240238460A1, “IMPROVED PROSTATE-SPECIFIC MEMBRANE ANTIGEN TARGETING RADIOPHARMACEUTICALS AND USES THEREOF” (TELIX PHARMACEUTICALS (INNOVATIONS) PTY LTD, priority 2021, published 2024)
